Data as given in paper PMC5776677 (Journal of medicinal chemistry, 2016).
pEC50: −log10 of the molar value. Where a name gives a salt, the structure may show the parent alone.

Columns and labels:
[1] = system: HBV; assay: Anti-HBV activity in HepG2; assay type: cell-based
[2] = system: HIV-1; assay: Anti-HIV-1 activity in HIV-infected PBMCs; conditions: for TI (CC50/EC50), HIV-1: HIV-1, PBMCs
[3] = Aqueous solubility; assay type: physicochemical
[4] = system: HIV-1; conditions: read-out: EC50 against HIV-1; cited from earlier work
[5] = Cytotoxicity in uninfected PBMCs; assay type: cell-based; conditions: human
[6] = assay type: physicochemical

Compound | TI (CC50/EC50), HBV [1] | TI (CC50/EC50), HIV-1 [2] | also measured
6-(Dodecyldisulfanyl)hexyl Hydrogen ((((R)-1-(6-Amino-9H-purin-9-yl)propan-2-yl)oxy)methyl)phosphonate [5b] | >47 | >7000 | –
CCCCCCCCCCCCCCCCSSCCOP(=O)(O)CO[C@H](C)Cn1cnc2c(N)ncnc21 [1b, 2-(hexadecyldisulfanyl)ethyl hydrogen ((((R)-1-(6-amino-9H-purin-9-yl)propan-2-yl)oxy)methyl)phosphonate] | > 1200 | – | aqueous solubility [3]: poor aqueous solubility
CCCCCCCCCCCCCCCCSSCCCCOP(=O)(O)CO[C@H](C)Cn1cnc2c(N)ncnc21 [2b, (R)-4-(hexadecyldisulfanyl)butyl (((1-(6-amino-9H-purin-9-yl)propan-2-yl)oxy)methyl)phosphonate] | >200 | >100000 | aqueous solubility [3]: poor aqueous solubility
CCCCCCCCCCCCCCCCSSCc1ccccc1COP(=O)(O)CO[C@H](C)Cn1cnc2c(N)ncnc21 [4b, (R)-2-((hexadecyldisulfanyl)methyl)benzyl (((1-(6-amino-9H-purin-9-yl)propan-2-yl)oxy)methyl)phosphonate] | – | >31800 | –
CCCCCCCCCCCCCCCCOCCCOP(=O)(O)CO[C@H](C)Cn1cnc2c(N)ncnc21 [CMX-157, Hexadecyloxypropyl-9-R-[2-(Phosphonomethoxy)-Propyl]-Adenine] | – | – | pEC50 [4]: 7.70
CC(C)OC(=O)OCOP(=O)(CO[C@H](C)Cn1cnc2c(N)ncnc21)OCOC(=O)OC(C)C [TDF, tenofovir disoproxil fumarate] | – | – | CC50 [5]: 44 µM
C[C@H](Cn1cnc2c(N)ncnc21)OCP(=O)(O)O [TFV, tenofovir, reference compound] | – | >300 | –
C[C@H](Cn1cnc2c(N)ncnc21)OCP(=O)(O)OCCS [compound 6, 2-mercaptoethyl hydrogen ((((R)-1-(6-amino-9H-purin-9-yl)propan-2-yl)oxy)methyl)phosphonate] | >2 | >5.38 | stability in glycine/HCl buffer ([6]; pH 2.0, 0.1 M DTT, 37.4 °C): no observed decomposition; stability in PBS ([6]; pH 7.43, TFV appears as new signal): Moderate stability; decomposition in aqueous carbonate/bicarbonate buffer ([6]; pH 9.19, 0.1 M DTT, 37.4 °C): significant decomposition; time to complete consumption of starting material ([6]; pH 10.16): ≤ 8 min; fold less active than TFV against HIV-infected PBMCs ([2]; relative to TFV): 58 fold
C[C@H](Cn1cnc2c(N)ncnc21)OCP(=O)(O)OCCCCS [compound 7, 4-mercaptobutyl hydrogen ((((R)-1-(6-amino-9H-purin-9-yl)propan-2-yl)oxy)methyl)phosphonate] | > 1 | – | stability in various aqueous buffers ([6]; all tested pH values, several hours at 37 °C): no detectable decomposition
